In patent US10160748B2 (AbbVie Inc., priority 2015, dated 2018) one finds IC50 data, which are given here for 50 molecules.

The target in this test is TNFα trimer (Homo sapiens, UniProt P01375). As to the kind of experiment: TNFα FP Competitive Binding Assay. To be noted: FP binding assay; 20 nM TNFα trimer, 1 nM OregonGreen488 probe; read-out: TNF IC50. The gist of the method: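 Compounds in 12-point 1:3 series, final top 100 μM (2.0% DMSO) or 338 μM (3.4% DMSO), displace 1 nM fluorescent probe from 20 nM TNFα trimer. After 18-24 h incubation plus 1 h rt equilibration, background-subtracted polarization measured and curves fitted with variable slope.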
TNFα trimer, sequence (P01375 77-233 limits assumed): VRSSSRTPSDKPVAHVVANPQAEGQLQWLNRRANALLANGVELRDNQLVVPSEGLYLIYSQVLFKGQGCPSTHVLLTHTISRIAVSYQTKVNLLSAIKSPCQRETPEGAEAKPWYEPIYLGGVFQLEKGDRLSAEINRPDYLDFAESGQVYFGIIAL

As usually defined, the IC50 is the midpoint of a concentration-inhibition curve. Regarding `O=c1[nH]n(Cc2cc(Cl)ccc2Cl)c2cc(-c3cnc(N4CCOCC4)nc3)ccc12` [Example 9.1], the IC50 is > 10000 nM.
As to `CCn1c(=O)c2ccc(-c3cnc(N4CCOCC4)nc3)cc2n1Cc1ccccc1OC(F)F` [Example 10, 1-(2-(Difluoromethoxy)benzyl)-2-ethyl-6-(2-morpholinopyrimidin-5-yl)-1H-indazol-3(2H)-one], the IC50 was 1000 to 10000 nM.
As for `Cn1c(=O)c2ccc(-c3cnc(C(C)(C)O)nc3)cc2n1Cc1ccccc1OC(F)F` [Example 10.1], the IC50 lay within 1000 to 10000 nM.
Regarding `Cn1c(=O)c2ccc(-c3cnc(N4CCOCC4)cn3)cc2n1Cc1ccccc1OC(F)F` [Example 10.2], the IC50 lay in the range of 1000 to 10000 nM.
As to `Cn1c(=O)c2ccc(-c3cnc(N4CCC(C(=O)O)CC4)cn3)cc2n1Cc1ccccc1OC(F)F` [Example 10.3], the half-inhibitory concentration (IC50) was > 10000 nM.
With `CC(Nc1ncc(-c2ccc3c(=O)n(C)n(Cc4ccccc4OC(F)F)c3c2)cn1)C(N)=O` (centres unmarked) [Example 10.4], the concentration for half-maximal inhibition (IC50) was 1000 to 10000 nM.
Consider `Cn1c(=O)c2ccc(-c3nsc(N4CCOCC4)n3)cc2n1Cc1ccccc1OC(F)F` [Example 10.5], for which the IC50 is > 10000 nM.
For the molecule `C[C@@H]1CN(c2ncc(-c3ccc4c(=O)n(C)n(Cc5ccccc5OC(F)F)c4c3)cn2)CCN1C(=O)CO` [Example 10.6, (R)-1-(2-(difluoromethoxy)benzyl)-6-(2-(4-(2-hydroxyacetyl)-3-methylpiperazin-1-yl)pyrimidin-5-yl)-2-methyl-1H-indazol-3(2H)-one], the IC50 is < 1000 nM.
Regarding `C[C@@H]1C[C@H](O)CCN1c1ncc(-c2ccc3c(=O)n(C)n(Cc4ccccc4OC(F)F)c3c2)cn1` [Example 10.9], the IC50 was < 1000 nM.
Take `Cc1nc(N2CCN(C(=O)CO)C[C@H]2C)ncc1-c1ccc2c(=O)n(C)n(Cc3ccccc3OC(F)F)c2c1` [Example 10.10]: the IC50 is < 1000 nM.
With `Cn1c(=O)c2ccc(-c3ccnc(OC4CCOCC4)c3)cc2n1Cc1ccccc1OC(F)F` [Example 10.11], the IC50 is < 1000 nM.
The same measure for `CC(=O)N1CCC(Oc2cc(-c3ccc4c(=O)n(C)n(Cc5ccccc5OC(F)F)c4c3)ccn2)CC1` [Example 10.12]: 1000 to 10000 nM; for `Cn1c(=O)c2ccc(-c3ccnc(OC4CCCOC4)c3)cc2n1Cc1ccccc1OC(F)F` (centres unmarked) [Example 10.13]: 1000 to 10000 nM; for `C[C@@H]1CN(C(=O)CO)CCN1c1ncc(-c2ccc3c(=O)n(C)n(Cc4ccccc4OC(F)F)c3c2)cn1` [Example 10.14]: < 1000 nM.
In the case of `CN(C)c1ncc(-c2ccc3c(=O)n(C)n(Cc4ccccc4OC(F)F)c3c2)cn1` [Example 10.15], the half-maximal inhibitory concentration (IC50) was in the range of 1000 to 10000 nM.
Take `CC(=O)N1CCN(c2ncc(-c3ccc4c(=O)n(C)n(Cc5ccccc5OC(F)F)c4c3)cn2)[C@H](C)C1` [Example 10.16]: the 50% inhibitory concentration (IC50) is < 1000 nM.
For the molecule `C[C@H]1CN(C(=O)CO)CCN1c1ncc(-c2ccc3c(=O)n(C)n(Cc4ccccc4OC(F)F)c3c2)cn1` [Example 10.17], the IC50 was < 1000 nM.
As to `O=c1c2ccc(-c3cnc(N4CCOCC4)nc3)cc2n(Cc2ccccc2OC(F)F)n1C1CC1` [Example 11, 2-Cyclopropyl-1-(2-(difluoromethoxy)benzyl)-6-(2-morpholinopyrimidin-5-yl)-1H-indazol-3(2H)-one], the IC50 lay in the range of 1000 to 10000 nM.
Turning to `Cn1c(=O)c2ccc(-c3ccnc(N4CCOCC4)c3)cc2n1Cc1cccc(F)c1` [Example 11.1], the IC50 is > 10000 nM.
Regarding `Cn1c(=O)c2ccc(-c3cnn(C4CCOCC4)c3)cc2n1Cc1cccc(F)c1` [Example 11.2], the IC50 is > 10000 nM.
With `Cn1c(=O)c2ccc(-c3cnc(CC4(C)COC4)nc3)cc2n1Cc1ccccc1OC(F)F` [Example 12, 1-(2-(Difluoromethoxy)benzyl)-2-methyl-6-(2-((3-methyloxetan-3-yl)methyl)pyrimidin-5-yl)-1H-indazol-3(2H)-one], the half-maximal inhibitory concentration (IC50) fell in the range of 1000 to 10000 nM.
As to `Cn1c(=O)c2ccc(-c3cnc(N4CCOCC4)nc3)cc2n1-c1cc(Cl)ccc1Cl` [Example 12.1], the IC50 is 1000 to 10000 nM.
In the case of `Cn1c(=O)c2ccc(-c3nc(N4CCOCC4)no3)cc2n1Cc1ccccc1OC(F)F` [Example 13, 1-(2-(Difluoromethoxy)benzyl)-2-methyl-6-(3-morpholino-1,2,4-oxadiazol-5-yl)-1H-indazol-3(2H)-one], the IC50 lay in the range of 1000 to 10000 nM.
Under `Cc1cc2c(=O)n(C)n(Cc3ccccc3OC(F)F)c2cc1-c1cnc(N2CCOCC2)nc1` [Example 13.1] stands < 1000 nM; under `Cc1cc2c(=O)n(C)n(Cc3ccccc3OC(F)F)c2cc1-c1cnc(N2CCNC(=O)C2)nc1` [Example 13.2], 1000 to 10000 nM; under `Cc1cc2c(=O)n(C)n(Cc3ccccc3OC(F)F)c2cc1-c1cnc(N2CCC(C(=O)O)CC2)nc1` [Example 13.3], 1000 to 10000 nM.
Consider `Cn1c(=O)c2ncc(-c3cnc(N4CCOCC4)nc3)cc2n1Cc1ccccc1OC(F)F` [Example 14, 1-(2-(Difluoromethoxy)benzyl)-2-methyl-6-(2-morpholinopyrimidin-5-yl)-1H-pyrazolo[4,3-b]pyridin-3(2H)-one], for which the IC50 is > 10000 nM.
For `Cn1c(=O)c2ccc(-c3ccc(N4CCNCC4)nc3)cc2n1Cc1ccccc1OC(F)F` [Example 14.1], the IC50 lay in the range of 1000 to 10000 nM.
The same measure for `Cn1c(=O)c2ccc(-c3cnc(N4CCNCC4)nc3)cc2n1Cc1cc(Cl)ccc1Cl` [Example 14.2]: 1000 to 10000 nM; for `Cn1c(=O)c2ccc(-c3cnc(C4(O)CCN(C(=O)CN)CC4)nc3)cc2n1Cc1ccccc1OC(F)F` [Example 14.3]: 1000 to 10000 nM; for `CC(C)[C@H](N)C(=O)OCc1ccc(OC(F)F)c(Cn2c3cc(-c4cnc(N5CCN6C(=O)OC[C@@H]6C5)nc4)ccc3c(=O)n2C)c1` [Example 14.4]: 1000 to 10000 nM.
On to `Cc1ccc(OC(F)F)c(Cn2c3cc(-c4cnc(N5CCN[C@H](C)C5)nc4)ccc3c(=O)n2C)c1` [Example 14.5, (R)-1-(2-(difluoromethoxy)-5-methylbenzyl)-2-methyl-6-(2-(3-methylpiperazin-1-yl)pyrimidin-5-yl)-1H-indazol-3(2H)-one], for which the IC50 lay within 1000 to 10000 nM.
The same measure for `Cc1ccc(OC(F)F)c(Cn2c3cc(-c4cnc(N5CCN(C(=O)[C@H](C)N)[C@@H](C)C5)nc4)ccc3c(=O)n2C)c1` [Example 14.6]: < 1000 nM; for `Cc1ccc(OC(F)F)c(Cn2c3cc(-c4cnc(N5CCN(C(=O)CN)[C@@H](C)C5)nc4)ccc3c(=O)n2C)c1` [Example 14.7]: < 1000 nM.
Consider `C[C@@H]1CN(c2ncc(-c3ccc4c(=O)n(C)n(Cc5ccccc5OC(F)F)c4c3)cn2)CCN1C(=O)C(O)CN` (some centres unmarked) [Example 14.8], for which the concentration for half-maximal inhibition (IC50) was < 1000 nM.
In the case of `Cc1ccc(OC(F)F)c(Cn2c3cc(-c4cnc(N5CCN(C(=O)C(O)CN)[C@H](C)C5)nc4)ccc3c(=O)n2C)c1` (some centres unmarked) [Example 14.9], the IC50 was < 1000 nM.
Under `Cc1ccc(OC(F)F)c(Cn2c3cc(-c4cnc(N5CCN(C(=O)CN)[C@H](C)C5)nc4)ccc3c(=O)n2C)c1` [Example 14.10] stands < 1000 nM.
With `Cc1ccc(OC(F)F)c(Cn2c3cc(-c4cnc(N5CCN(C(=O)[C@H](C)N)[C@H](C)C5)nc4)ccc3c(=O)n2C)c1` [Example 14.11], the IC50 is < 1000 nM.
Under `CC(C)[C@H](N)C(=O)OCC(=O)N1CCN(c2ncc(-c3ccc4c(=O)n(C)n(Cc5ccccc5OC(F)F)c4c3)cn2)C[C@H]1C` [Example 14.12] stands < 1000 nM; under `CC(C)[C@@H](N)C(=O)OCC(=O)N1CCN(c2ncc(-c3ccc4c(=O)n(C)n(Cc5ccccc5OC(F)F)c4c3)cn2)C[C@H]1C` [Example 14.13], < 1000 nM.
Under `Cc1ccc(OC(F)F)c(Cn2c3cc(-c4cnc(N5CCN(C(=O)COC(=O)[C@@H](N)C(C)C)[C@H](C)C5)nc4)ccc3c(=O)n2C)c1` [Example 14.14] stands < 1000 nM.
Under `C[C@H](N)C(=O)OCc1ccc(OC(F)F)c(Cn2c3cc(-c4cnc(N5CCN6C(=O)NC[C@@H]6C5)nc4)ccc3c(=O)n2C)c1` [Example 14.15] stands < 1000 nM; under `CC(C)[C@H](N)C(=O)OCc1ccc(OC(F)F)c(Cn2c3cc(-c4cnc(N5CCN6C(=O)NC[C@@H]6C5)nc4)ccc3c(=O)n2C)c1` [Example 14.16], < 1000 nM.
Regarding `Cn1c(=O)c2ccc(-c3cnc(N4CCOCC4)nc3)nc2n1Cc1ccccc1OC(F)F` [Example 15, 1-(2-(Difluoromethoxy)benzyl)-2-methyl-6-(2-morpholinopyrimidin-5-yl)-1H-pyrazolo[3,4-b]pyridin-3(2H)-one], the IC50 was 1000 to 10000 nM.
Take `Cc1ccc(OC(F)F)c(Cn2c3cc(-c4cnc(N5CCN6C(=O)NC[C@H]6C5)nc4)ccc3c(=O)n2C)c1` [Example 15.1]: the IC50 was < 1000 nM.
Under `Cn1c(=O)c2ccc(-c3cnc(C(C)(C)O)nc3)nc2n1Cc1ccccc1OC(F)F` [Example 16, 1-(2-(Difluoromethoxy)benzyl)-6-(2-(2-hydroxypropan-2-yl)pyrimidin-5-yl)-2-methyl-1H-pyrazolo[3,4-b]pyridin-3(2H)-one] stands 1000 to 10000 nM; under `Cn1c(=O)c2ccc(-c3cnc(N4CCN5C(=O)NC[C@@H]5C4)nc3)cc2n1Cc1cc(CO)ccc1OC(F)F` [Example 16.1, (R)-7-(5-(1-(2-(difluoromethoxy)-5-(hydroxymethyl)benzyl)-2-methyl-3-oxo-2,3-dihydro-1H-indazol-6-yl)pyrimidin-2-yl)hexahydroimidazo[1,5-a]pyrazin-3(2H)-one], < 1000 nM.
For the molecule `CN1CCC(Nc2ncc(-c3ccc4c(=O)n(C)n(Cc5cc(CO)ccc5OC(F)F)c4c3)cn2)C1=O` (centres unmarked) [Example 16.2], the IC50 fell in the range of 1000 to 10000 nM.
Regarding `Cn1c(=O)c2ccc(-c3cnc(N4CCN5C(=O)OC[C@@H]5C4)nc3)cc2n1Cc1cc(CO)ccc1OC(F)F` [Example 16.3, (S)-7-(5-(1-(2-(difluoromethoxy)-5-(hydroxymethyl)benzyl)-2-methyl-3-oxo-2,3-dihydro-1H-indazol-6-yl)pyrimidin-2-yl)tetrahydro-1H-oxazolo[3,4-a]pyrazin-3(5H)-one], the IC50 is < 1000 nM.
For `Cn1c(=O)c2ccc(-c3cnc(N4CCN5C(=O)OC[C@H]5C4)nc3)cc2n1Cc1cc(CO)ccc1OC(F)F` [Example 16.4], the IC50 was < 1000 nM.
